{"source": "PubChem BioAssay (NCI)", "test_in_all_cases": "DTP human tumour cell line panel, 48 h", "key": {"SK-OV-3 ovarian": {"test_system": "SK-OV-3 ovarian"}, "BT-549 breast": {"test_system": "BT-549 breast"}, "HS 578T breast": {"test_system": "HS 578T breast"}, "EKVX NSCLC": {"test_system": "EKVX NSCLC"}, "A498 renal": {"test_system": "A498 renal"}, "CCRF-CEM leukemia": {"test_system": "CCRF-CEM leukemia"}, "MDA-MB-231 breast": {"test_system": "MDA-MB-231 breast"}, "HOP-62 NSCLC": {"test_system": "HOP-62 NSCLC"}, "SF-268 CNS": {"test_system": "SF-268 CNS"}, "COLO 205 colon": {"test_system": "COLO 205 colon"}, "HCT-116 colon": {"test_system": "HCT-116 colon"}, "TK-10 renal": {"test_system": "TK-10 renal"}, "HCC-2998 colon": {"test_system": "HCC-2998 colon"}, "MDA-MB-435": {"test_system": "MDA-MB-435"}, "U251 CNS": {"test_system": "U251 CNS"}, "NCI-H460 lung": {"test_system": "NCI-H460 lung"}, "OVCAR-8 ovarian": {"test_system": "OVCAR-8 ovarian"}, "UACC-62 melanoma": {"test_system": "UACC-62 melanoma"}, "MCF7 breast": {"test_system": "MCF7 breast"}, "NCI-H226 lung": {"test_system": "NCI-H226 lung"}, "ACHN renal": {"test_system": "ACHN renal"}, "HT29 colon": {"test_system": "HT29 colon"}, "NCI-H522 lung": {"test_system": "NCI-H522 lung"}, "NCI-H23 lung": {"test_system": "NCI-H23 lung"}, "UO-31 renal": {"test_system": "UO-31 renal"}, "M14 melanoma": {"test_system": "M14 melanoma"}, "K-562 leukemia": {"test_system": "K-562 leukemia"}, "CAKI-1 renal": {"test_system": "CAKI-1 renal"}, "RPMI-8226 leukemia": {"test_system": "RPMI-8226 leukemia"}, "HCT-15 colon": {"test_system": "HCT-15 colon"}, "PC-3 prostate": {"test_system": "PC-3 prostate"}, "SNB-19 CNS": {"test_system": "SNB-19 CNS"}, "OVCAR-4 ovarian": {"test_system": "OVCAR-4 ovarian"}, "T-47D breast": {"test_system": "T-47D breast"}, "NCI/ADR-RES ovarian": {"test_system": "NCI/ADR-RES ovarian"}, "SK-MEL-2 melanoma": {"test_system": "SK-MEL-2 melanoma"}, "SK-MEL-28 melanoma": {"test_system": "SK-MEL-28 melanoma"}, "KM12 colon": {"test_system": "KM12 colon"}, "A549 NSCLC": {"test_system": "A549 NSCLC"}, "OVCAR-5 ovarian": {"test_system": "OVCAR-5 ovarian"}, "SK-MEL-5 melanoma": {"test_system": "SK-MEL-5 melanoma"}, "SN12C renal": {"test_system": "SN12C renal"}, "SW-620 colon": {"test_system": "SW-620 colon"}, "786-0 renal": {"test_system": "786-0 renal"}, "SNB-75 CNS": {"test_system": "SNB-75 CNS"}, "LOX IMVI melanoma": {"test_system": "LOX IMVI melanoma"}, "RXF 393 renal": {"test_system": "RXF 393 renal"}}, "note": "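A five-concentration, 48-hour dose response in 96-well plates underlies each endpoint, interpolated linearly between surrounding concentrations. GI50 marks 50% less growth. The concentration for full growth arrest is given as TGI.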"}
{"smiles": "C#Cc1nc(/C=C\\CCCCCCC(=O)NO)cs1", "values": [{"measurement": "GI50", "setting": "SK-OV-3 ovarian", "value": 2.49, "unit": "µM"}, {"measurement": "TGI", "setting": "SK-OV-3 ovarian", "value": 7.44, "unit": "µM"}, {"measurement": "GI50", "setting": "BT-549 breast", "value": 4.53, "unit": "µM"}, {"measurement": "TGI", "setting": "BT-549 breast", "value": 42.5, "unit": "µM"}, {"measurement": "GI50", "setting": "HS 578T breast", "value": 2, "unit": "µM"}, {"measurement": "TGI", "setting": "HS 578T breast", "value": 8.41, "unit": "µM"}, {"measurement": "GI50", "setting": "EKVX NSCLC", "value": 5.23, "unit": "µM"}, {"measurement": "TGI", "setting": "EKVX NSCLC", "value": "> 100", "unit": "µM"}, {"measurement": "GI50", "setting": "A498 renal", "value": 1.68, "unit": "µM"}, {"measurement": "TGI", "setting": "A498 renal", "value": 3.3, "unit": "µM"}, {"measurement": "GI50", "setting": "CCRF-CEM leukemia", "value": 0.329, "unit": "µM"}, {"measurement": "TGI", "setting": "CCRF-CEM leukemia", "value": 11.6, "unit": "µM"}, {"measurement": "GI50", "setting": "MDA-MB-231 breast", "value": 2.59, "unit": "µM"}, {"measurement": "TGI", "setting": "MDA-MB-231 breast", "value": 6.25, "unit": "µM"}, {"measurement": "GI50", "setting": "HOP-62 NSCLC", "value": 2.67, "unit": "µM"}, {"measurement": "TGI", "setting": "HOP-62 NSCLC", "value": 11.4, "unit": "µM"}, {"measurement": "GI50", "setting": "SF-268 CNS", "value": 2.84, "unit": "µM"}, {"measurement": "TGI", "setting": "SF-268 CNS", "value": 7.64, "unit": "µM"}, {"measurement": "GI50", "setting": "COLO 205 colon", "value": 1.9, "unit": "µM"}, {"measurement": "TGI", "setting": "COLO 205 colon", "value": 3.82, "unit": "µM"}, {"measurement": "GI50", "setting": "HCT-116 colon", "value": 2.01, "unit": "µM"}, {"measurement": "TGI", "setting": "HCT-116 colon", "value": 7.74, "unit": "µM"}, {"measurement": "GI50", "setting": "TK-10 renal", "value": 1.68, "unit": "µM"}, {"measurement": "TGI", "setting": "TK-10 renal", "value": 6.36, "unit": "µM"}, {"measurement": "GI50", "setting": "HCC-2998 colon", "value": 5.58, "unit": "µM"}, {"measurement": "TGI", "setting": "HCC-2998 colon", "value": 18.1, "unit": "µM"}, {"measurement": "GI50", "setting": "MDA-MB-435", "value": 2.75, "unit": "µM"}, {"measurement": "TGI", "setting": "MDA-MB-435", "value": 11.8, "unit": "µM"}, {"measurement": "GI50", "setting": "U251 CNS", "value": 1.86, "unit": "µM"}, {"measurement": "TGI", "setting": "U251 CNS", "value": 3.96, "unit": "µM"}, {"measurement": "GI50", "setting": "NCI-H460 lung", "value": 2.72, "unit": "µM"}, {"measurement": "TGI", "setting": "NCI-H460 lung", "value": 16.4, "unit": "µM"}, {"measurement": "GI50", "setting": "OVCAR-8 ovarian", "value": 2, "unit": "µM"}, {"measurement": "TGI", "setting": "OVCAR-8 ovarian", "value": 8.77, "unit": "µM"}, {"measurement": "GI50", "setting": "UACC-62 melanoma", "value": 1.35, "unit": "µM"}, {"measurement": "TGI", "setting": "UACC-62 melanoma", "value": 3.29, "unit": "µM"}, {"measurement": "GI50", "setting": "MCF7 breast", "value": 2.94, "unit": "µM"}, {"measurement": "TGI", "setting": "MCF7 breast", "value": "> 100", "unit": "µM"}, {"measurement": "GI50", "setting": "NCI-H226 lung", "value": 2.81, "unit": "µM"}, {"measurement": "TGI", "setting": "NCI-H226 lung", "value": 9.71, "unit": "µM"}, {"measurement": "GI50", "setting": "ACHN renal", "value": 2.33, "unit": "µM"}, {"measurement": "TGI", "setting": "ACHN renal", "value": 6.46, "unit": "µM"}, {"measurement": "GI50", "setting": "HT29 colon", "value": 2.6, "unit": "µM"}, {"measurement": "TGI", "setting": "HT29 colon", "value": 7.5, "unit": "µM"}, {"measurement": "GI50", "setting": "NCI-H522 lung", "value": 0.177, "unit": "µM"}, {"measurement": "TGI", "setting": "NCI-H522 lung", "value": 0.352, "unit": "µM"}, {"measurement": "GI50", "setting": "NCI-H23 lung", "value": 0.964, "unit": "µM"}, {"measurement": "TGI", "setting": "NCI-H23 lung", "value": 2.39, "unit": "µM"}, {"measurement": "GI50", "setting": "UO-31 renal", "value": 0.163, "unit": "µM"}, {"measurement": "TGI", "setting": "UO-31 renal", "value": 0.318, "unit": "µM"}, {"measurement": "GI50", "setting": "M14 melanoma", "value": 3.65, "unit": "µM"}, {"measurement": "TGI", "setting": "M14 melanoma", "value": 19.9, "unit": "µM"}, {"measurement": "GI50", "setting": "K-562 leukemia", "value": 2.1, "unit": "µM"}, {"measurement": "TGI", "setting": "K-562 leukemia", "value": "> 100", "unit": "µM"}, {"measurement": "GI50", "setting": "CAKI-1 renal", "value": 1.82, "unit": "µM"}, {"measurement": "TGI", "setting": "CAKI-1 renal", "value": 4.27, "unit": "µM"}, {"measurement": "GI50", "setting": "RPMI-8226 leukemia", "value": 1.54, "unit": "µM"}, {"measurement": "TGI", "setting": "RPMI-8226 leukemia", "value": 4.96, "unit": "µM"}, {"measurement": "GI50", "setting": "HCT-15 colon", "value": 3, "unit": "µM"}, {"measurement": "TGI", "setting": "HCT-15 colon", "value": 13.4, "unit": "µM"}, {"measurement": "GI50", "setting": "PC-3 prostate", "value": 3.41, "unit": "µM"}, {"measurement": "TGI", "setting": "PC-3 prostate", "value": 20.1, "unit": "µM"}, {"measurement": "GI50", "setting": "SNB-19 CNS", "value": 3.99, "unit": "µM"}, {"measurement": "TGI", "setting": "SNB-19 CNS", "value": 23, "unit": "µM"}, {"measurement": "GI50", "setting": "OVCAR-4 ovarian", "value": 2.05, "unit": "µM"}, {"measurement": "TGI", "setting": "OVCAR-4 ovarian", "value": 5.77, "unit": "µM"}, {"measurement": "GI50", "setting": "T-47D breast", "value": 1.62, "unit": "µM"}, {"measurement": "TGI", "setting": "T-47D breast", "value": 4.24, "unit": "µM"}, {"measurement": "GI50", "setting": "NCI/ADR-RES ovarian", "value": 0.861, "unit": "µM"}, {"measurement": "TGI", "setting": "NCI/ADR-RES ovarian", "value": 5.83, "unit": "µM"}, {"measurement": "GI50", "setting": "SK-MEL-2 melanoma", "value": 2.72, "unit": "µM"}, {"measurement": "TGI", "setting": "SK-MEL-2 melanoma", "value": 8.53, "unit": "µM"}, {"measurement": "GI50", "setting": "SK-MEL-28 melanoma", "value": 3.69, "unit": "µM"}, {"measurement": "TGI", "setting": "SK-MEL-28 melanoma", "value": 30.1, "unit": "µM"}, {"measurement": "GI50", "setting": "KM12 colon", "value": 3.25, "unit": "µM"}, {"measurement": "TGI", "setting": "KM12 colon", "value": 11.8, "unit": "µM"}, {"measurement": "GI50", "setting": "A549 NSCLC", "value": 2.94, "unit": "µM"}, {"measurement": "TGI", "setting": "A549 NSCLC", "value": 11.4, "unit": "µM"}, {"measurement": "GI50", "setting": "OVCAR-5 ovarian", "value": 2.63, "unit": "µM"}, {"measurement": "TGI", "setting": "OVCAR-5 ovarian", "value": 11.5, "unit": "µM"}, {"measurement": "GI50", "setting": "SK-MEL-5 melanoma", "value": 2.38, "unit": "µM"}, {"measurement": "TGI", "setting": "SK-MEL-5 melanoma", "value": 6.69, "unit": "µM"}, {"measurement": "GI50", "setting": "SN12C renal", "value": 4.02, "unit": "µM"}, {"measurement": "TGI", "setting": "SN12C renal", "value": "> 100", "unit": "µM"}, {"measurement": "GI50", "setting": "SW-620 colon", "value": 1.69, "unit": "µM"}, {"measurement": "TGI", "setting": "SW-620 colon", "value": 4.2, "unit": "µM"}, {"measurement": "GI50", "setting": "786-0 renal", "value": 0.376, "unit": "µM"}, {"measurement": "TGI", "setting": "786-0 renal", "value": 12.6, "unit": "µM"}, {"measurement": "GI50", "setting": "SNB-75 CNS", "value": 1.4, "unit": "µM"}, {"measurement": "TGI", "setting": "SNB-75 CNS", "value": 4.27, "unit": "µM"}, {"measurement": "TGI", "setting": "LOX IMVI melanoma", "value": 0.0231, "unit": "µM"}, {"measurement": "GI50", "setting": "RXF 393 renal", "value": 1.72, "unit": "µM"}, {"measurement": "TGI", "setting": "RXF 393 renal", "value": 4.14, "unit": "µM"}]}
